Measurements reported in patent US7012067B2, “Blood lipid ameliorant composition” (Sankyo Company, Limited, priority 2000, dated 2006).

Legend:
Format in all cases: in vivo
blood lipid peroxides = assay: Blood lipid peroxide levels in dogs (Yagi's methods); settings: beagle dogs, oral once daily, relative to pre-dosing level (100), mean of 5, simvastatin 1 mg/kg
Text: (§1) Beagle dogs aged 5 months were purchased from Covance Research Products Inc. and used after 1 month of quarantine and acclimatisaton breeding.
(§2) The required amounts of simvastatin or each component of the combination drug calculated from the body weight of each dog were weighed and filled in a gelatin capsule (½ ounce) purchased from TORPAC Inc. Capsules filled with simvastatin were stocked in a refrigerator and those filled with combination drugs stocked at room temperature until use.
(§3) The combination drugs were filled in identical gelatin capsules.
(§4) Simvastatin or combination drug capsules were forcibly orally administered to each of the test animals once daily between 9:00 and 12:30. Animals were fasted for 2 or 3 hr prior to administration of the capsules.
(§5) The administration period was 11 successive days.
(§6) Blood (10 mL) was collected from the superficial radial vein 2 or 1 weeks prior to administration and 4, 8, and 12 days after administration was started. Animals were fasted for approximately 18 hr prior to blood collection. Collected blood was placed in a test tube and left at room temperature for 0.5-1 hr, before being centrifuged (3,000 rpm for 10 min). The obtained serum was used for assays of blood levels of lipid peroxides, total cholesterol, triglycerides, free fatty acids, GOT, and CPK according to Yagi's methods, CEH-COD-POD methods, GK-GPO-POD methods, ACS-ACOD methods, UV-rate methods, and UV-rate methods, respectively. (For ACS-ACOD (Acyl-CoA synthetase-Acyl-CoA oxidase peroxidase) methods, CEH-COD-POD (Cholesterol ester hydrolase-Cholesteroloxidase-Peroxidase) methods, Yagis methods and GK-GPO-POD (Glycerokinase-Glycerolphosphateoxidase-Peroxidase)methods, see: Kanai's Manual of Clinical Laboratory Medicine; 31st Edition (September 1998), Kanehara & Co., Ltd.)
(§7) All these levels were determined using a fluorometer (Hitachi, Ltd., F3000), a full automatic analyzer (Monarch, Instrumentation Laboratory), and an automatic analyzer (7170, Hitachi, Ltd.).
(§8) All these values in dogs treated with one of the drugs described above were converted to their relative ratios against their averaged pre-dosing levels (100) determined 2 and 1 weeks prior to drug administration. The averaged value in each group was obtained from 5 animals per group.

blood free fatty acids = assay: Blood free fatty acid levels in dogs (ACS-ACOD methods); settings: beagle dogs, oral once daily, relative to pre-dosing level (100), mean of 5, simvastatin 1 mg/kg
Text: as §1, §2, §3, §4, §5, §6, §7, §8

CPK = assay: Serum CPK levels in dogs (UV-rate methods); settings: beagle dogs, oral once daily, relative to pre-dosing level (100), mean of 5, simvastatin 1 mg/kg, ascorbic acid 500 mg/kg
Text: as §1, §2, §3, §4, §5
(§9) Blood (10 mL) was collected from the superficial radial vein 2 or 1 weeks prior to administration and 4, 8, and 12 days after administration was started. Animals were fasted for approximately 18 hr prior to blood collection. Collected blood was placed in a test tube and left at room temperature for 0.5-1 hr, before being centrifuged (3,000 rpm for 10 min). The obtained serum was used for assays of blood levels of lipid peroxides, total cholesterol, triglycerides, free fatty acids, GOT, and CPK according to Yagi's methods, CEH-COD-POD methods, GK-GPO-POD methods, ACS-ACOD methods, UV-rate methods, and UV-rate methods, respectively.
as §8

blood triglycerides = assay: Blood triglyceride levels in dogs (GK-GPO-POD methods); settings: beagle dogs, oral once daily, relative to pre-dosing level (100), mean of 5
Text: as §1, §2, §3, §4, §5, §6, §7, §8

blood total cholesterol = assay: Blood total cholesterol levels in dogs (CEH-COD-POD methods); settings: beagle dogs, oral once daily, relative to pre-dosing level (100), mean of 5, simvastatin 1 mg/kg, taurine 1000 mg/kg
Text: as §1, §2, §3, §4, §5, §6, §7, §8

GOT = assay: Serum GOT levels in dogs (UV-rate methods); settings: beagle dogs, oral once daily, relative to pre-dosing level (100), mean of 5, simvastatin 1 mg/kg, Tocoph 300 mg/kg
Text: as §1, §2, §3, §4, §5, §9, §8

[1] = simvastatin 1 mg/kg (dose cell of simvastatin alone empty), taurine 1000 mg/kg
[2] = simvastatin 1 mg/kg, Tocoph 300 mg/kg
[3] = simvastatin 1 mg/kg, pantethine 300 mg/kg

Compound	CPK Levels after administration, 4 days (CPK)	CPK Levels after administration, 8 days (CPK)	CPK Levels after administration, 12 days (CPK)	Blood Lipid Peroxide Levels after administration, 4 days (blood lipid peroxides; ascorbic acid 500 mg/kg)	Blood Lipid Peroxide Levels after administration, 8 days (blood lipid peroxides; ascorbic acid 500 mg/kg)	Blood Lipid Peroxide Levels after administration, 12 days (blood lipid peroxides; ascorbic acid 500 mg/kg)	Blood FFA Levels after administration, 4 days (blood free fatty acids; ascorbic acid 500 mg/kg)	Blood FFA Levels after administration, 8 days (blood free fatty acids; ascorbic acid 500 mg/kg)	Blood FFA Levels after administration, 12 days (blood free fatty acids; ascorbic acid 500 mg/kg)	Blood Lipid Peroxide Levels after administration, 4 days (blood lipid peroxides; RFVb 200 mg/kg)	Blood Lipid Peroxide Levels after administration, 8 days (blood lipid peroxides; RFVb 200 mg/kg)	Blood Lipid Peroxide Levels after administration, 12 days (blood lipid peroxides; RFVb 200 mg/kg)	Blood FFA Levels after administration, 4 days (blood free fatty acids; RFVb 200 mg/kg)	Blood FFA Levels after administration, 8 days (blood free fatty acids; RFVb 200 mg/kg)	Blood FFA Levels after administration, 12 days (blood free fatty acids; RFVb 200 mg/kg)	Blood Lipid Peroxide Levels after administration, 4 days (blood lipid peroxides; taurine 1000 mg/kg)	Blood Lipid Peroxide Levels after administration, 8 days (blood lipid peroxides; taurine 1000 mg/kg)	Blood Lipid Peroxide Levels after administration, 12 days (blood lipid peroxides; taurine 1000 mg/kg)	Blood FFA Levels after administration, 4 days (blood free fatty acids; Tocoph 300 mg/kg)	Blood FFA Levels after administration, 8 days (blood free fatty acids; Tocoph 300 mg/kg)	other results
CCCC(=O)OC[C@@H](OC(=O)CCC)[C@@H](OC(=O)CCC)[C@H](Cn1c2nc(=O)[nH]c(=O)c-2nc2cc(C)c(C)cc21)OC(=O)CCC [RFVb, riboflavin butyrate]										88.9	101.0	80.8	97.6	101.2	92.9						
NCCS(=O)(=O)O [Taurine, 2-aminoethanesulfonic acid]																95.8	93.8	87.5			Blood Triglyceride Levels after administration, 4 days (blood triglycerides; [1]): 98.6; Blood Triglyceride Levels after administration, 8 days (blood triglycerides; [1]): 95.8; Blood Triglyceride Levels after administration, 12 days (blood triglycerides; [1]): 80.8; Blood Total Cholesterol Levels after administration, 4 days (blood total cholesterol): 95.9; Blood Total Cholesterol Levels after administration, 8 days (blood total cholesterol): 90.2; Blood Total Cholesterol Levels after administration, 12 days (blood total cholesterol): 87.2
CC(=O)Oc1c(C)c(C)c2c(c1C)CC[C@@](C)(CCC[C@H](C)CCC[C@H](C)CCCC(C)C)O2 [Tocoph, d-α-tocopherol acetate]																			115.4	103.1	Blood FFA Levels after administration, 12 days (blood free fatty acids; Tocoph 300 mg/kg): 86.2; Blood Triglyceride Levels after administration, 4 days (blood triglycerides; [2]): 106.3; Blood Triglyceride Levels after administration, 8 days (blood triglycerides; [2]): 119.0; Blood Triglyceride Levels after administration, 12 days (blood triglycerides; [2]): 75.9; GOT Levels after administration, 4 days (GOT): 114.9; GOT Levels after administration, 8 days (GOT): 139.7; GOT Levels after administration, 12 days (GOT): 109.1

Further lines, with some results ahead:

CPK Levels after administration, 4 days (CPK)	CPK Levels after administration, 8 days (CPK)	CPK Levels after administration, 12 days (CPK)	Compound	Blood Lipid Peroxide Levels after administration, 4 days (blood lipid peroxides; ascorbic acid 500 mg/kg)	Blood Lipid Peroxide Levels after administration, 8 days (blood lipid peroxides; ascorbic acid 500 mg/kg)	Blood Lipid Peroxide Levels after administration, 12 days (blood lipid peroxides; ascorbic acid 500 mg/kg)	Blood FFA Levels after administration, 4 days (blood free fatty acids; ascorbic acid 500 mg/kg)	Blood FFA Levels after administration, 8 days (blood free fatty acids; ascorbic acid 500 mg/kg)	Blood FFA Levels after administration, 12 days (blood free fatty acids; ascorbic acid 500 mg/kg)	Blood Lipid Peroxide Levels after administration, 4 days (blood lipid peroxides; RFVb 200 mg/kg)	Blood Lipid Peroxide Levels after administration, 8 days (blood lipid peroxides; RFVb 200 mg/kg)	Blood Lipid Peroxide Levels after administration, 12 days (blood lipid peroxides; RFVb 200 mg/kg)	Blood FFA Levels after administration, 4 days (blood free fatty acids; RFVb 200 mg/kg)	Blood FFA Levels after administration, 8 days (blood free fatty acids; RFVb 200 mg/kg)	Blood FFA Levels after administration, 12 days (blood free fatty acids; RFVb 200 mg/kg)	Blood Lipid Peroxide Levels after administration, 4 days (blood lipid peroxides; taurine 1000 mg/kg)	Blood Lipid Peroxide Levels after administration, 8 days (blood lipid peroxides; taurine 1000 mg/kg)	Blood Lipid Peroxide Levels after administration, 12 days (blood lipid peroxides; taurine 1000 mg/kg)	Blood FFA Levels after administration, 4 days (blood free fatty acids; Tocoph 300 mg/kg)	Blood FFA Levels after administration, 8 days (blood free fatty acids; Tocoph 300 mg/kg)	other results
98.3	95.1	91.5	O=C1O[C@H]([C@@H](O)CO)C(O)=C1O [Ascorbic acid, ascorbic acid]	87.6	89.9	94.4	87.4	109.6	97.8												
94.5	99.4	91.0	CCC(C)(C)C(=O)O[C@H]1C[C@@H](C)C=C2C=C[C@H](C)[C@H](CC[C@@H]3C[C@@H](O)CC(=O)O3)[C@H]21 [Simvastatin, (+)-(1S,3R,7S,8S,8aR)-1,2,3,7,8,8a-hexahydro-3,7-dimethyl-8-[2-[(2R4R )-tetrahydro-4-hydroxy-6-oxo-2H-pyran-2-yl]ethyl]-1-naphthyl 2,2-dimethylbutanoate]	96.2	86.4	91.0	93.8	99.3	97.0	96.2	86.4	91.0	93.8	99.3	97.0	96.2	86.4	91.0	93.8	99.3	Blood Lipid Peroxide Levels after administration, 4 days (blood lipid peroxides; pantethine 300 mg/kg): 96.2; Blood Lipid Peroxide Levels after administration, 8 days (blood lipid peroxides; pantethine 300 mg/kg): 86.4; Blood Lipid Peroxide Levels after administration, 12 days (blood lipid peroxides; pantethine 300 mg/kg): 91.0; Blood FFA Levels after administration, 12 days (blood free fatty acids; Tocoph 300 mg/kg): 97.0; Blood Triglyceride Levels after administration, 4 days (blood triglycerides; [1]): 97.6; Blood Triglyceride Levels after administration, 4 days (blood triglycerides; [2]): 96.2; Blood Triglyceride Levels after administration, 4 days (blood triglycerides; [3]): 97.6; Blood Triglyceride Levels after administration, 8 days (blood triglycerides; [1]): 88.9; Blood Triglyceride Levels after administration, 8 days (blood triglycerides; [2]): 86.4; Blood Triglyceride Levels after administration, 8 days (blood triglycerides; [3]): 88.9; Blood Triglyceride Levels after administration, 12 days (blood triglycerides; [1]): 89.3; Blood Triglyceride Levels after administration, 12 days (blood triglycerides; [2]): 91.0; Blood Triglyceride Levels after administration, 12 days (blood triglycerides; [3]): 89.3; Blood Total Cholesterol Levels after administration, 4 days (blood total cholesterol): 102.1; Blood Total Cholesterol Levels after administration, 8 days (blood total cholesterol): 93.2; Blood Total Cholesterol Levels after administration, 12 days (blood total cholesterol): 86.6; GOT Levels after administration, 4 days (GOT): 98.1; GOT Levels after administration, 8 days (GOT): 93.9; GOT Levels after administration, 12 days (GOT): 100.4
